According to patent US9969755B2, “Photodynamic therapy photosensitizers” (The Royal Institution for the Advancement of …, priority 2016, dated 2018):
Where two headings read alike, the source gives them in different places.

How the values were obtained:
[1] = cited from earlier work; for overall singlet oxygen quenching rate constant kq: kq(physical)+kq(chemical), reference 74; for chemical quenching of ^1O2 / physical quenching of ^1O2: share of total quenching
[2] = cited from earlier work; for E^oB^+·/B (reversible oxidation potential): from reference 54 (1) or 31 (2)
[3] = acetonitrile, room temperature; from reference 31; cited from earlier work
[4] = cited from earlier work; for abs λmax / em λmax / Φf (fluorescence quantum yield) / ε (extinction coefficient): acetonitrile, room temperature, from reference 31; for E00 (HOMO-LUMO gap): from reference 54 (1) or 31 (2)
[5] = from reference 54 (1) or 31 (2); cited from earlier work
[6] = from reference 54 (1) or 31 (2); cited from earlier work; remark: listed apart in the source
[7] = Intermolecular quenching of ^1O2 phosphorescence by chromanol rings; type: physicochemical; settings: ^1O2 generated upon irradiation of compound 5, air equilibrated acetonitrile
Source text: To test whether 7 is equally efficient at deactivating ^1O2 as α-tocopherol, we generated ^1O2 upon irradiation of compound 5 and monitored the ^1O2 phosphorescence lifetime in the presence of increasing amounts of either 7 or PMHC (an α-tocopherol analogue lacking the phytyl tail).

[8] = ^1O2 quantum yield and lifetime, ^1O2 phosphorescence at 1270 nm (direct method); type: physicochemical
Procedure: The generation of singlet oxygen and its lifetime were determined from ^1O2 phosphorescence decay curves recorded at 1270 nm upon excitation with a 532 nm Nd:YAG laser. A total of 3 laser shots were applied to acquire a trace. […] Quantum yield of ^1O2 production (φΔ^D) were calculated comparing the intensity of ^1O2 phosphorescence at 1270 nm for the corresponding photosensitizer with that recorded for Rose Bengal (φΔ=0.54).^81

[9] = Absorption and steady-state fluorescence, fluorescence quantum yield in acetonitrile; type: physicochemical
Procedure: Absorption spectra were recorded using a Hitachi U-2800 UV-vis-NIR spectrophotometer. Luminescence spectra were recorded using a PTI QuantaMaster spectrofluorimeter using 10×10 mm quartz cuvettes and corrected for detector sensitivity.
The steady-state fluorescence spectra were recorded between 500-800 nm (depending on each compound) upon exciting at the wavelength of the absorbance maxima. The excitation and emission slits were tuned according to the fluorescence quantum yield of each BODIPY (i.e. for compound 7 excitation slits were 5 nm and for compound 4 we used 2 nm). Fluorescence was recorded every 1 nm using 0.1 s integration time. For the Fluorescence lifetime measurements, the excitation rate was 10 MHz, and the detection frequency was less than 100 kHz. Photons were collected at the magic angle. The fluorescence decay traces were fit using FluoFit (Picoquant) software. For steady-state and time-resolved fluorescence measurements a quartz cuvette with a 10 mm path length was used and all the solutions were prepared in air equilibrated acetonitrile.
Quantum yields of fluorescence were measured using PM605 in acetonitrile as a reference. Absorption and emission spectra of PM605 and the dye of interest were measured in acetonitrile at five different concentrations. The integrated intensity versus absorbance were then plotted and fitted linearly. Relative quantum yields of fluorescence for the unknown with respect to the standard were obtained from equation 1, where φ, Δ, and n refer, respectively, to the quantum yield, the slope obtained from the above-mentioned plot, and the solvent refractive index for the unknown (x) or standard (st).

[10] = Time-resolved fluorescence (fluorescence lifetime, TCSPC); type: physicochemical; settings: acetonitrile, room temperature
Procedure: Fluorescence lifetime measurements were carried out using a Picoquant Fluotime 200 time correlated single photon counting (TCSPC) setup employing an LDH-P-C-470 picosecond diode laser (Picoquant) with an excitation wavelength at 466 nm as the excitation source. The laser was controlled by a PDL 800 B picosecond laser driver from Picoquant. ^1HNMR spectra were recorded on a Bruker AV 400 instrument at 400 MHz. ^13CNMR spectra were recorder on a Varian VNMRS 500 instrument at 125 MHz. ESI mass spectra were measured on a Bruker maXis impact. Laser Flash Photolysis (LFP) experiments were carried out in a commercially available Luzchem 212 LFP setup provided with a Tektronix TDS 2000 digitizer for signal capture. A Nd:Yag laser (Continuum model Surelite I-10 using a second harmonic generators, model number SL-SHG-T1) was used for excitation at a wavelength of 532 nm. Phosphorescence experiments were recorded using a Cary Eclipse Fluorescence Spectrophotometer. Singlet Oxygen phosphorescence was recorded with a Hamamatsu NIR detector (peltier cooled at −62.8° C. operating at 800 V, coupled to a grating monochromator) upon excitation with a 532 nm Nd:YAG laser. A customized Luzchem Research LFP-111 system was employed to collect and process the data. The steady-state fluorescence spectra were recorded between 500-800 nm (depending on each compound) upon exciting at the wavelength of the absorbance maxima. The excitation and emission slits were tuned according to the fluorescence quantum yield of each BODIPY (i.e. for compound 7 excitation slits were 5 nm and for compound 4 we used 2 nm). Fluorescence was recorded every 1 nm using 0.1 s integration time. For the Fluorescence lifetime measurements, the excitation rate was 10 MHz, and the detection frequency was less than 100 kHz. Photons were collected at the magic angle. The fluorescence decay traces were fit using FluoFit (Picoquant) software. For steady-state and time-resolved fluorescence measurements a quartz cuvette with a 10 mm path length was used and all the solutions were prepared in air equilibrated acetonitrile.

[11] = ^1O2 quantum yield, photooxidation of DMA (indirect method); type: physicochemical; settings: consumption of dimethylanthracene, Rose Bengal standard, air equilibrated acetonitrile
Procedure: Solutions of 9,10-dimethylanthracene (DMA, 50 μM) and photosensitizers (compound 3-10) in air equilibrated acetonitrile were irradiated in 10 mm path length quartz cell (3 ml) with a Nd:Yag laser exciting at 532 nm. Laser excitation was performed at 10 Hz, providing one laser output for every discharge of the flashlamp. An irradiation time of 1 s is equivalent to 10 laser pulses. The energy of each pulse was 10 mJ. The kinetics of DMA photooxidation were studied by following the decrease of the absorbance at λ=377 nm. The observed rate constant (kobs) was obtained by a linear least-squares fit of the semilogarithmic plot of ln [DMA]0/[DMA] (see FIG. 14). Quantum yields of ^1O2 production (φΔ^I) were calculated comparing the kobs=kq [^1O2] for the corresponding photosensitizer with that for Rose Bengal, which was used as a reference (φΔ=0.54).^1 Measurements of the sample and the reference under the same conditions afforded φΔ^I for compounds (3-10) by direct comparison of the slope in the linear region of the plots.
For the indirect detection of ^1O2, it is possible to determine the kq value considering that the production of ^1O2 is constant compare with the initial concentration of DMA. According to these, a pseudo first-order kinetic for this reaction is proposed (equations 2 to 5): […]
The conversion of DMA followed pseudo-first order kinetics with the different photosensitizers (see FIG. 14). From equation 5, it was possible to determine kobs and ^1O2.

[12] = Laser flash photolysis: triplet excited state decay and quenching; type: physicochemical
Procedure: The 500 mJ/pulse laser output was attenuated yielding 10 mJ laser pulses of 6 ns in duration. Samples were prepared in acetonitrile. The final absorbance of the BODIPY dyes was 0.1. The concentration was kept low to avoid triplet-triplet annihilation. Each sample was de-oxygenated by purging with argon gas for at least 30 min. Quartz cells containing 10×10 mm path length were used. The decay of the BODIPYs was monitored between 420-440 and 520-550 nm (depending the BODIPY) following the laser excitation. Samples were irradiated with a total of 6 laser shots to acquire the temporal evolution of ΔOD.
A second layer of control was subsequently tested via LFP studies, to monitor the extent to which the trap segment deactivates the triplet excited state of the photosensitizes. […] The two quenchers emulate the trap segments utilized in 7 and 8, respectively.

[13] = system: E. coli ATCC 25922; assay: Antibacterial photodynamic inactivation, regular vs hydrogen peroxide stressed bacteria (CFU counts); type: cell-based; settings: in the dark; 7 with or without H2O2
Procedure: The microorganism used for this study is E. coli ATCC 25922. Stock cultures were preserved at −70° C. using glycerol 10% (v/v) as the cryoprotectant, and the strain was grown in Luria Bertania broth (LB). Bacterial culture was prepared inoculating a single colony from a pure culture. After overnight incubation at 37° C. for 18 h, the culture reached a density of approximately 1×10^9 CFU/mL and it was diluted to 10^6 CFU/mL.
At the end of the irradiation time, 100 μL aliquots were placed in 96 wells from each tube and serially diluted 10-fold in PBS to obtain dilutions of 10^1 to 10^4 fold, in addition to the original concentration, on agar plates to determine CFU. Viability counts were performed at 0 and 1 hour in either dark or light conditions from each dilution, 10 μL aliquots were plated on LB agar. Plates were streaked in triplicate and incubated for 18 h at 37° C. Each experiment was performed at least three times on different days.
To stress the cells we utilized hydrogen peroxide, known to stimulate ROS production in Gram-negative cells.^79,80 We incubated bacteria from the E. coli strain (10^6 colony forming units (CFU)/mL) with 500 nM hydrogen peroxide for 2 hours at 37° C. Following precipitation and resuspension of this bacteria in media with no H2O2, we added compound 7. In parallel, compound 7 was also added to bacteria that were not exposed to H2O2.

Cc1c(C)c2c(c(C)c1O)CC[C@@](C)(CCC[C@H](C)CCC[C@H](C)CCCC(C)C)O2 [α-tocopherol]
overall singlet oxygen quenching rate constant kq [1]: 2.06e+08 M⁻¹ s⁻¹
chemical quenching of ^1O2 [1]: 7%
physical quenching of ^1O2 [1]: 93%

CC(=O)OCC1=C2C(C)=CC(C)=[N+]2[B-](F)(F)n2c(C)cc(C)c21 [Compound 2, 8-Acetoxymethyl-1,3,5,7-tetramethyl Pyrromethene Fluoroborate]
E^opc (cathodic peak potential) ([2]; from reference 31): −1.44
E^oB^+·/B (reversible oxidation potential) [2]: 0.75
kdec (fluorescence decay rate constant) [3]: 15.0 ± 0.2 × 10^7 s^−1
knr (non-radiative decay rate constant) [3]: 2.0 ± 0.1 × 10^7 s^−1
krad (radiative rate constant) [3]: 13.1 ± 0.2 × 10^7 s^−1
abs λmax [4]: 515 nm
em λmax [4]: 530 nm
Φf (fluorescence quantum yield) [4]: 0.87 ± 0.02
ε (extinction coefficient) [4]: 81000 M⁻¹ cm⁻¹
E00 (HOMO-LUMO gap) [4]: 2.38 eV
ΔGeT (Singlet), Gibbs free energy for PeT [5]: −0.24 eV
εHOMO [6]: −5.49 ± 0.01 eV
εLUMO [6]: −2.61 ± 0.05 eV

Cc1c(C)c2c(c(C)c1O)CCC(C)(C)O2 [PMHC, 2,2,5,7,8-pentamethyl-6-hydroxy-chroman]
singlet oxygen quenching rate constant kq [7]: 4e+08 M⁻¹ s⁻¹
overall singlet oxygen quenching rate constant kq [1]: 1.96e+08 M⁻¹ s⁻¹
chemical quenching of ^1O2 [1]: 5%
physical quenching of ^1O2 [1]: 95%

CC1=C(I)C(C)=[N+]2C1=C(COC(=O)C1(C)CCc3c(C)c(O)c(C)c(C)c3O1)c1c(C)c(I)c(C)n1[B-]2(F)F (racemic) [Compound 8, 8-((±)-6-Hydroxy-2,5,7,8-tetramethylchromane-2-carbonyloxy)-2,6-diiodo-methyl-1,3,5,7-tetramethylpyrromethene Fluoroborate]
φΔ relative to control compound 5 [8]: ca. ½
ΦΔ^D (singlet oxygen quantum yield, direct) ([8]; ^1O2 phosphorescence at 1270 nm, air equilibrated acetonitrile): 0.57 ± 0.02
^1O2 phosphorescence decay lifetime ([8]; upon photosensitization, air equilibrated acetonitrile): 70 μs
drop in φf caused by the trap segment ([9]; 7 compared to reference 4, 8 compared to 5): ca. 2 fold
abs λmax ([9]; acetonitrile, room temperature): 552 nm
em λmax ([9]; acetonitrile, room temperature): 576 nm
Φf (fluorescence quantum yield) ([9]; acetonitrile, room temperature): 0.009 ± 0.002
ε (extinction coefficient) ([9]; acetonitrile, room temperature): 63000 M⁻¹ cm⁻¹
kdec (fluorescence decay rate constant) [10]: 555.6 ± 0.6 × 10^7 s^−1
knr (non-radiative decay rate constant, (1−φf)×kdec) [10]: 551.0 ± 0.5 × 10^7 s^−1
krad (radiative rate constant, φf×kdec) [10]: 5.0 ± 0.1 × 10^7 s^−1
ΦΔ^I (singlet oxygen quantum yield, indirect) [11]: 0.46 ± 0.03
increase in kT upon covalent attachment of the chromanol ([12]; 8 compared to its precursor 5): 6 fold
kq (triplet quenching rate constant) Q = PMHC ([12]; Ar saturated acetonitrile): 5.90 ± 0.09 × 10^8 M^−1s^−1
kT (triplet decay rate constant) Air equilibrated ([12]; acetonitrile, air equilibrated): 4.55 ± 0.02 × 10^6 s^−1
kT (triplet decay rate constant) Argon Purged ([12]; acetonitrile, argon purged): 9.16 ± 0.05 × 10^4 s^−1
kq (triplet quenching rate constant) Q = ^3O2 ([12]; acetonitrile, calculated with oxygen solubility 2.42 mM): 1.88 ± 0.02 × 10^9 M^−1s^−1

CC1=CC(C)=[N+]2C1=C(C)c1c(C)cc(C)n1[B-]2(F)F [Compound 1, 1,3,5,7,8-pentamethyl-Pyrromethene Fluoroborate]
E^oB^+·/B (reversible oxidation potential) [2]: 0.77
kdec (fluorescence decay rate constant) [3]: 17.8 ± 0.1 × 10^7 s^−1
knr (non-radiative decay rate constant) [3]: 3.3 ± 0.1 × 10^7 s^−1
krad (radiative rate constant) [3]: 14.4 ± 0.1 × 10^7 s^−1
abs λmax [4]: 491 nm
em λmax [4]: 498 nm
Φf (fluorescence quantum yield) [4]: 0.81 ± 0.02
ε (extinction coefficient) [4]: 97000 M⁻¹ cm⁻¹
E00 (HOMO-LUMO gap) [4]: 2.53 eV
ΔGeT (Singlet), Gibbs free energy for PeT [5]: −0.26 eV
εHOMO [6]: −5.36 ± 0.01 eV
εLUMO [6]: −2.31 ± 0.05 eV

OO [Compound H2O2, hydrogen peroxide, reference compound]
colony forming units, dark controls [13]: no effect in the CFU
